Article PMC6911684 (Bioorganic & medicinal chemistry letters, 2019)
Each block holds one compound with its values, some of them ahead of it.

Tests used:
GGTase I = GGTase I (Homo sapiens, UniProt P49354+P53609); test: GGTase I in vitro enzyme assay; format: biochemical
FTase = FTase (Homo sapiens, UniProt P49354+P49356); test: FTase in vitro enzyme assay; format: biochemical
GGTase II [1] = molecular target: T1, GGTase II (Homo sapiens, UniProt P53611+Q92696); test: GGTase II in vitro enzyme assay; format: biochemical
T1 sequence (Q92696 1-567): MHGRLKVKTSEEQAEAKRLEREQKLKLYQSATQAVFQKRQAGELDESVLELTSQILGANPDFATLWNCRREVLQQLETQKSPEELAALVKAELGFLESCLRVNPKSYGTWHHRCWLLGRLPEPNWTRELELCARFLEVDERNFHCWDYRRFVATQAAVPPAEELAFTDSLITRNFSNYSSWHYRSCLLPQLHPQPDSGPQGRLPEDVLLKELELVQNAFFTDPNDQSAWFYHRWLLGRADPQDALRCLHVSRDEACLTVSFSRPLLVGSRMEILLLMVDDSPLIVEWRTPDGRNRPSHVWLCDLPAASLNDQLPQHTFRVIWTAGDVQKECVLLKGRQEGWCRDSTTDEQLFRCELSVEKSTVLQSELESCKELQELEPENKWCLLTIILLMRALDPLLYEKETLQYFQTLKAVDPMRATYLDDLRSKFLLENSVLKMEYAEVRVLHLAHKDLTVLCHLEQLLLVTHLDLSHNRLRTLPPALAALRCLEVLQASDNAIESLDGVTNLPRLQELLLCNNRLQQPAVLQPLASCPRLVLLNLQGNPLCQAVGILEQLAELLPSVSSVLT
T1 sequence (P53611 1-331): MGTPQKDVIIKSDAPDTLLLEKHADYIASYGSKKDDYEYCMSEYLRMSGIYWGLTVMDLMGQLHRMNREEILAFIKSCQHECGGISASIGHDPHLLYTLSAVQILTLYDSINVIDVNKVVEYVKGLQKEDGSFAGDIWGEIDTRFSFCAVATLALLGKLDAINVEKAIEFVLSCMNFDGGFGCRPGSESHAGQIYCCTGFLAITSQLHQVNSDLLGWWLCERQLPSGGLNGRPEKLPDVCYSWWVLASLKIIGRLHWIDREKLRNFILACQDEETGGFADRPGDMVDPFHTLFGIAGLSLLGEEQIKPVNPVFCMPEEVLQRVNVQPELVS

RPMI-8226 cells [2] = test: Cellular protein prenylation assays; format: cell-based, human
GGTase II [3] = molecular target: T1, GGTase II; details: cited from earlier work
FDPS = molecular target: T2, FDPS (Homo sapiens, UniProt P14324); test: FDPS in vitro enzyme assay; format: biochemical; details: ratio of GGDPS and FDPS IC50
T2 sequence (P14324 1-419): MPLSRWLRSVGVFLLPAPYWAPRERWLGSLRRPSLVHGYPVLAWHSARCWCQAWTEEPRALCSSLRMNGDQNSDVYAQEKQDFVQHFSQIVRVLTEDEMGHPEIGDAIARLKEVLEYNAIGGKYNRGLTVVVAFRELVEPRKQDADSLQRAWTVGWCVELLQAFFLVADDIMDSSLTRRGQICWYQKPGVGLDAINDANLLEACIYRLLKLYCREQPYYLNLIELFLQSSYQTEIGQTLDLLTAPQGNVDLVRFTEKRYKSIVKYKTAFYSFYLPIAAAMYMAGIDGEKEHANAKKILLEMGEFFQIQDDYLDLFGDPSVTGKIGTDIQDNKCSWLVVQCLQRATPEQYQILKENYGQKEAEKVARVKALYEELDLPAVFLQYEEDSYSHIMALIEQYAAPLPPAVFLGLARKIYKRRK

RPMI-8226 cells [4] = details: HMG-CoA reductase inhibitor, 10 μM in Figure 2; cited from earlier work
myeloma cells = details: cited from earlier work
[5] = RPMI-8226 cells, 48 hours, immunoblot

SMILES: CC(Cn1cnc2ccccc21)(C(=O)O)P(=O)(O)O (centres unmarked) [Compound 14]
IC50 (GGTase I): > 1 mM
IC50 (FTase): > 1 mM

SMILES: O=C(O)C(Cn1cnc2cc(F)c(F)cc21)P(=O)(O)O (centres unmarked) [Compound 15]
IC50 (GGTase II [1]): > 1 mM

SMILES: O=P(O)(O)C(Cn1cnc2cc(F)c(F)cc21)P(=O)(O)O [Compound 19]
Concentration for cellular activity relative to parent compound 17 (RPMI-8226 cells [2]; higher concentration than compound 17): 20 fold

SMILES: O=C(O)C(O)(Cc1cnc2ccccn12)P(=O)(O)O (single isomer, unassigned; (+)) [(+)-enantiomer of 3-IPEHPC]
Activity relative to the (−)-enantiomer (GGTase II [3]; more active than (−)-enantiomer): ~ 60 fold

SMILES: O=C(O)C(Cn1cnc2ccccc21)P(=O)(O)O (centres unmarked) [Compound 13]
Intracellular light chain levels (RPMI-8226 cells [2]; RPMI-8226 cells, 48 hours, ELISA): increase
Membrane-bound Rab6 levels (RPMI-8226 cells [2]; RPMI-8226 cells, 48 hours, detergent fraction, immunoblot): decrease
Disruption of H-Ras prenylation (representative farnesylated protein) (RPMI-8226 cells [2]; [5]): did not cause disruption
Disruption of Rap1a prenylation (representative substrate for GGTase I) (RPMI-8226 cells [2]; [5]): did not cause disruption
IC50 (GGTase I): > 1 mM

SMILES: CC[C@H](C)C(=O)O[C@H]1C[C@@H](C)C=C2C=C[C@H](C)[C@H](CC[C@@H]3C[C@@H](O)CC(=O)O3)[C@H]21 [Lovastatin, reference compound]
Disruption of prenylation (positive control) (RPMI-8226 cells [4]): disrupts all prenylation
Impairment of protein prenylation in cells (RPMI-8226 cells [2]; lovastatin alone at 0.5 μM, RPMI-8226 cells, 48 hours): only minimally impairs protein prenylation

SMILES: O=C(O)C(O)(Cc1cccnc1)P(=O)(O)O (centres unmarked) [Compound 3-PEHPC]
Concentration required to yield cellular effects (myeloma cells): > 5 mM

SMILES: O=C(O)C(O)(Cc1cnc2ccccn12)P(=O)(O)O (centres unmarked) [Compound 3-IPEHPC]
Potency as GGTase II inhibitor relative to 3-PEHPC (GGTase II [3]; more potent than 3-PEHPC): 25 fold

More lines, main results first:

IC50 (GGTase I): > 1 mM
IC50 (FTase): > 1 mM
IC50 (GGTase II [1]): > 1 mM
SMILES: Cc1cc2ncn(CC(C(=O)O)P(=O)(O)O)c2cc1C (centres unmarked) [Compound 16]

IC50 (GGTase I): > 1 mM
IC50 (GGTase II [1]): > 1 mM
SMILES: O=P(O)(O)C(Cn1cnc2ccccc21)P(=O)(O)O [Compound 17]
Impairment of protein prenylation in cells (RPMI-8226 cells [2]; RPMI-8226 cells, 48 hours): globally disrupts protein prenylation
Impairment of protein prenylation in combination with lovastatin (RPMI-8226 cells [2]; co-incubation with lovastatin 0.5 μM, RPMI-8226 cells, 48 hours): enhanced the impairment of protein prenylation

IC50 (GGTase I): > 1 mM
IC50 (FTase): > 1 mM
SMILES: Cc1cc2ncn(CC(P(=O)(O)O)P(=O)(O)O)c2cc1C [Compound 20]
Impairment of protein prenylation in cells (RPMI-8226 cells [2]; RPMI-8226 cells, 48 hours): no detectable impairment of protein prenylation

IC50 (GGTase I): > 1 mM
Selectivity for FDPS relative to GGDPS (FDPS): >100
IC50 (FTase): > 1 mM
IC50 (GGTase II [1]): > 1 mM
SMILES: CC(Cn1cnc2ccccc21)(P(=O)(O)O)P(=O)(O)O [Compound 18]
Impairment of protein prenylation in cells (RPMI-8226 cells [2]; RPMI-8226 cells, 48 hours): no detectable impairment of protein prenylation
